In brackets after ≈: the same amount, converted by molar mass. Where two headings read alike, the source gives them in different places.
Columns and labels:
MRSA USA300 = experiment: Broth microdilution MIC, initial antibacterial screening; type: cell-based, S. aureus
Experimental: (§1) The minimum inhibitory concentrations (MICs) of the tested compounds and control drugs against clinically-relevant bacterial strains were determined using the broth microdilution method, according to guidelines outlined by the Clinical and Laboratory Standards Institute (CLSI), or as described previously.
(§2) Initial screening of the bisphenylthiazoles against Gram-positive and Gram-negative bacteria. Bacterial strains, (except C. difficile that was grown anaerobically on brain heart infusion supplemented agar at 37° C for 48 hours), were grown aerobically overnight on tryptone soy agar plates at 37° C. Afterwards, a bacterial solution equivalent to 0.5 McFarland standard was prepared and diluted in cation-adjusted Mueller-Hinton broth (CAMHB) (for S. aureus, and E. coli) to achieve a bacterial concentration of about 5 × 10^5 CFU/mL. C. difficile was diluted in brain heart infusion supplemented broth, supplemented with yeast extract, hemin and vitamin K to achieve a bacterial concentration of about 5 × 10^5 CFU/mL. Compounds and control drugs were added in the first row of the 96 -well plates, and serially diluted with the corresponding media containing bacteria. Plates were then, incubated aerobi cally at 37° C for 18-20 hours (for S. aureus and E. coli). C. difficile was incubated anaerobically at 37° C for 48 hours. […]
(§3) the visual growth of bacteria.

[1] = tested on: C. difficile ATCC BAA1870; experiment: Broth microdilution MIC, initial antibacterial screening (anaerobic); type: cell-based, Clostridioides difficile
Experimental: as §1, §2, §3

[2] = tested on: E. coli JW55031 (tolC-mutant); experiment: microbe, parasite or virus in culture; type: cell-based, Escherichia coli
Experimental: as §1, §2, §3

[3] = tested on: E. coli BW25113 (wild-type); experiment: Broth microdilution MIC, initial antibacterial screening; type: cell-based, Escherichia coli
Experimental: as §1, §2, §3

Candida albicans = experiment: Antifungal broth microdilution MIC (50% growth inhibition) and MFC; type: cell-based
Experimental: (§4) Serial dilutions (from 128 μg/mL to 0.06 μg/mL) of the tested compounds and control drugs (fluconazole, itraconazole and amphotericin) (in triplicates), were screened against clinical isolates of Candida albicans, Candida auris, Candida glabrata, Candida parapsilosis, Candida tropicalis, Candida krusei, Cryptococcus neoformans, Cryptococcus gattii and Aspergillus fumigatus species using the broth microdilution method according to the Clinical and Laboratory Standards Institute guidelines. MICs were determined as the lowest concentration of the compounds that inhibited the fungal growth by 50% after incubation at 35 °C for 24 h (for Candida and Aspergillus), or 48 h (for Cryptococcus). The minimum fungicidal concentration (MFC) of these compounds was tested by plating 4 μL from wells with no growth onto YPD agar plates. The plates were incubated at 37 °C for 24 hours before recording the MFC, which was categorized as the lowest concentration that reduced fungal growth by 99.9% [45]. The experiment was repeated three independent times.

Candida glabrata = experiment: Antifungal broth microdilution MIC (50% growth inhibition) and MFC; type: cell-based; details: Nakaseomyces glabratus
Experimental: as §4

Candida krusei = experiment: as above; type: cell-based; details: Pichia kudriavzevii, read-out: MIC
Experimental: as §4

Candida tropicalis = experiment: as above; type: cell-based; details: Candida tropicalis, ATCC1369
Experimental: as §4

Candida parapsilosis = experiment: Antifungal broth microdilution MIC (50% growth inhibition); type: cell-based; details: Lodderomyces parapsilosis, read-out: MIC
Experimental: as §4

Candida auris = experiment: Checkerboard assay of compound 17 with standard antifungals; type: cell-based; details: for FICI (fractional inhibitory concentration index) / Interpretation of interaction: antifungal combined with compound 17; for MIC Combined, Antifungal: antifungal in combination with compound 17; for MIC: Candidozyma auris, checkerboard, agent alone
Experimental: To evaluate the interactions between bisphenylthiazoles and the standard antifungal agents (fluconazole, amphotericin B, 5-fluorocytosine and caspofungin) against 2 C. auris clinical isolates, a standard checkerboard assay was utilized as described in previous studies. The fractional inhibitory concentration index (FICI) was calculated for each interaction. Interactions where the FICI was ≤0.5 were categorized as synergistic (SYN). FICI values of >0.5–1.25 were categorized as additive (ADD). FICI values of >1.25–4 were categorized as indifferent, and FICI values of > 4 were categorized as antagonistic. The experiment was repeated three independent times.

Aspergillus fumigatus = experiment: Antifungal broth microdilution MIC (50% growth inhibition); type: cell-based; details: Aspergillus fumigatus, read-out: MIC
Experimental: as §4

[4] = Staphylococcus aureus, MRSA USA300, read-out: MIC
[5] = Clostridioides difficile, ATCCBAA1870, read-out: MIC
[6] = Escherichia coli, read-out: MIC
[7] = Candida albicans, C. albicans SS5314 (wild-type), read-out: MIC
[8] = Candida auris 381 (azole-sensitive)
[9] = Candida auris 385 (azole-resistant)

| SMILES | MIC (MRSA USA300; MRSA USA300) | MIC [1] | MIC ([2]; E. coli JW55031 (tolC-mutant)) | MIC [3] | MIC (Candida albicans; C. albicans SS5314 (wild-type)) | MIC (MRSA USA300; [4]) | MIC [1, 5] | MIC ([2]; Escherichia coli) | MIC [3, 6] | other results |
| --- | --- | --- | --- | --- | --- | --- | --- | --- | --- | --- |
| Cc1nc(-c2ccc(-c3ccccc3)cc2)sc1-c1nnc(N2CCC[C@@H]2C(N)=O)o1 [Compound 14, (R)-1-{5-[2-((1,1’-biphenyl)-4-yl)-4-methylthiazol-5-yl]-1,3,4-oxadiazol-2-yl}pyro-lidine-2-carboxamide] | >64 µg/mL | 64 µg/mL (≈ 148 µM) | >64 µg/mL | >64 µg/mL | >64 µg/mL | – | – | – | – | – |
| Cc1nc(-c2ccc(-c3ccccc3)cc2)sc1-c1nnc(N2CCCCC2CN)o1 (stereo not shown) [Compound 15, {1-[5-(2-((1,1’-Biphenyl)-4-yl)-4-methylthiazol-5-yl)-1,3,4-oxadiazol-2-yl]piperidin-2-yl}methanamine] | – | – | – | – | – | 16 µg/mL (≈ 37.1 µM) | 16 µg/mL (≈ 37.1 µM) | 16 µg/mL (≈ 37.1 µM) | > 64 µg/mL | MIC (Candida albicans; [7]): 16 µg/mL (≈ 37.1 µM); melting point: 225 to 227 °C |
| Cc1nc(-c2ccc(-c3ccccc3)cc2)sc1-c1nnc(NCC(=N)N)o1 [Compound 9, 2-{[5-(2-((1,1’-biphenyl)-4-yl)-4-methylthiazol-5-yl)-1,3,4-oxadiazol-2-yl]amino} acetimidamide] | >64 µg/mL | >64 µg/mL | >64 µg/mL | >64 µg/mL | >64 µg/mL | – | – | – | – | – |
| Cc1nc(-c2ccc(-c3ccccc3)cc2)sc1-c1nnc(NC2CCNC2)o1 (stereo not shown) [Compound 10, 5-{2-[(1,1’-Biphenyl)-4-yl]-4-methylthiazol-5-yl}-N-(pyrrolidin-3-yl)-1,3,4-oxadiazol-2-amine] | – | – | – | – | – | > 64 µg/mL | 32 µg/mL (≈ 79.3 µM) | > 64 µg/mL | > 64 µg/mL | MIC (Candida albicans; [7]): 8 µg/mL (≈ 19.8 µM); melting point: 116 to 117 °C |
| CC[C@H](C)C[C@H](C)CCCCCCCCC(=O)N[C@H]1C[C@@H](O)[C@@H](NCCN)NC(=O)[C@@H]2[C@@H](O)CCN2C(=O)[C@H]([C@H](O)CCN)NC(=O)[C@H]([C@H](O)[C@@H](O)c2ccc(O)cc2)NC(=O)[C@@H]2C[C@@H](O)CN2C(=O)[C@H]([C@@H](C)O)NC1=O [Caspofungin] | – | – | – | – | – | – | – | – | – | MIC (Candida albicans; Candida albicans, ATCC10231): 0.125 µg/mL (≈ 0.114 µM); MIC (Candida albicans; Candida albicans, C. albicans NR-29448 (fluconazole-resistant), read-out: MIC): 0.25 µg/mL (≈ 0.229 µM); MIC (Candida glabrata): 0.125 µg/mL (≈ 0.114 µM); MIC (Candida glabrata; ATCC66032, C. glabrata ATCC 66032, read-out: MIC): 0.25 µg/mL (≈ 0.229 µM); MIC (Candida krusei; ATCC34135, C. krusei ATCC 34135): 0.5 µg/mL (≈ 0.457 µM); MIC (Candida krusei; C. krusei CAB 396420): 0.5 µg/mL (≈ 0.457 µM); MIC (Candida tropicalis): 0.125 µg/mL (≈ 0.114 µM); MIC (Candida parapsilosis; ATCC22019, C. parapsilosis ATCC 22019): 0.5 µg/mL (≈ 0.457 µM); MIC (Candida parapsilosis; C. parapsilosis CAB 502638): 0.5 µg/mL (≈ 0.457 µM); FICI (fractional inhibitory concentration index) (Candida auris; [8]): 1.250; Interpretation of interaction (Candida auris; [8]): ADD (FICI values of >0.5–1.25 were categorized as additive (ADD)); MIC Combined, Antifungal (Candida auris; [8]): 0.5 µg/mL; FICI (fractional inhibitory concentration index) (Candida auris; [9]): 1.125; Interpretation of interaction (Candida auris; [9]): ADD (FICI values of >0.5–1.25 were categorized as additive (ADD)); MIC Combined, Antifungal (Candida auris; [9]): 0.063 µg/mL; MIC (Candida auris; [8]): 0.5 µg/mL; MIC (Candida auris; [9]): 0.063 µg/mL |
| Cc1nc(-c2ccc(-c3ccccc3)cc2)sc1-c1nnc(N2CCC[C@H]2CO)o1 [Compound 20, (S)-{1-[5-(2-((1,1’-Biphenyl)-4-yl)-4-methylthiazol-5-yl)-1,3,4-oxadiazol-2-yl]pyro-lidin-2-yl}methanol] | >64 µg/mL | 64 µg/mL (≈ 153 µM) | >64 µg/mL | >64 µg/mL | >64 µg/mL | – | – | – | – | – |
| CC(=O)NC[C@H]1CN(c2ccc(N3CCOCC3)c(F)c2)C(=O)O1 [Linezolid, reference compound] | – | – | – | – | – | 1 µg/mL (≈ 2.96 µM) | 1 µg/mL (≈ 2.96 µM) | 8 µg/mL (≈ 23.7 µM) | > 64 µg/mL | – |
| Nc1nc(=O)[nH]cc1F [5-Fluorocytosine] | – | – | – | – | – | – | – | – | – | FICI (fractional inhibitory concentration index) (Candida auris; [8]): 1.250; Interpretation of interaction (Candida auris; [8]): ADD (FICI values of >0.5–1.25 were categorized as additive (ADD)); MIC Combined, Antifungal (Candida auris; [8]): 0.125 µg/mL; FICI (fractional inhibitory concentration index) (Candida auris; [9]): 1.125; Interpretation of interaction (Candida auris; [9]): ADD (FICI values of >0.5–1.25 were categorized as additive (ADD)); MIC Combined, Antifungal (Candida auris; [9]): 0.25 µg/mL; MIC (Candida auris; [8]): 0.125 µg/mL; MIC (Candida auris; [9]): 0.25 µg/mL |
| CN[C@H](CC(C)C)C(=O)N[C@H]1C(=O)N[C@@H](CC(N)=O)C(=O)N[C@H]2C(=O)N[C@H]3C(=O)N[C@H](C(=O)N[C@H](C(=O)O)c4cc(O)cc(O)c4-c4cc3ccc4O)[C@H](O)c3ccc(c(Cl)c3)Oc3cc2cc(c3O[C@@H]2O[C@H](CO)[C@@H](O)[C@H](O)[C@H]2O[C@H]2C[C@](C)(N)[C@H](O)[C@H](C)O2)Oc2ccc(cc2Cl)[C@H]1O [Vancomycin, reference compound] | – | – | – | – | – | – | – | – | – | MIC (MRSA USA300; Staphylococcus aureus): 1 µg/mL (≈ 0.69 µM) |
| Cc1nc(-c2ccc(-c3ccccc3)cc2)sc1-c1nnc(N2CC[C@@H](N(C)C)C2)o1 [Compound 11, (R)-1-{5-[2-((1,1’-biphenyl)-4-yl)-4-methylthiazol-5-yl]-1,3,4-oxadiazol-2-yl}-N,N-dimethylpyrrolidin-3-amine] | – | – | – | – | – | > 64 µg/mL | > 64 µg/mL | > 64 µg/mL | > 64 µg/mL | MIC (Candida albicans; [7]): > 64 µg/mL; melting point: 165 to 167 °C |
| Cc1nc(-c2ccc(-c3ccccc3)cc2)sc1-c1nnc(NCCN(C)C)o1 [Compound 8, N-{5-[2-((1,1’-Biphenyl)-4-yl)-4-methylthiazol-5-yl]-1,3,4-oxadiazol-2-yl}-N,N-dimethylethane-1,2-diamine] | 32 µg/mL (≈ 78.9 µM) | 16 µg/mL (≈ 39.5 µM) | 16 µg/mL (≈ 39.5 µM) | 64 µg/mL (≈ 158 µM) | 16 µg/mL (≈ 39.5 µM) | – | – | – | – | – |
| Cc1nc(-c2ccc(-c3ccccc3)cc2)sc1-c1nnc(N2CCC[C@@H]2CO)o1 [Compound 21, (R)-{1-[5-(2-((1,1’-Biphenyl)-4-yl)-4-methylthiazol-5-yl)-1,3,4-oxadiazol-2-yl]pyro-lidin-2-yl}tmethanol] | >64 µg/mL | >64 µg/mL | >64 µg/mL | >64 µg/mL | >64 µg/mL | – | – | – | – | – |
| Cc1nc(-c2ccc(-c3ccccc3)cc2)sc1-c1nnc(N[C@H]2CC[C@H](N)CC2)o1 [Compound 18, trans-N-{5-[2-((1,1’-Biphenyl)-4-yl)-4-methylthiazol-5-yl]-1,3,4-oxadiazol-2-yl}cyclo-hexane-1,4-diamine] | – | – | – | – | – | 32 µg/mL (≈ 74.1 µM) | 8 µg/mL (≈ 18.5 µM) | 32 µg/mL (≈ 74.1 µM) | > 64 µg/mL | MIC (Candida albicans; [7]): 16 µg/mL (≈ 37.1 µM); melting point: 260 to 263 °C |
| Cc1nc(-c2ccc(-c3ccccc3)cc2)sc1-c1nnc(N2CCC[C@H]2C(N)=O)o1 [Compound 13, (S)-1-{5-[2-((1,1’-biphenyl)-4-yl)-4-methylthiazol-5-yl]-1,3,4-oxadiazol-2-yl}pyro-lidine-2-carboxamide] | >64 µg/mL | >64 µg/mL | >64 µg/mL | >64 µg/mL | >64 µg/mL | – | – | – | – | – |
| CCC(C)n1ncn(-c2ccc(N3CCN(c4ccc(OCC5COC(Cn6cncn6)(c6ccc(Cl)cc6Cl)O5)cc4)CC3)cc2)c1=O (stereo not shown) [Itraconazole, reference compound] | – | – | – | – | – | – | – | – | – | MIC (Aspergillus fumigatus; A. fumigatus NR 35303): 1 µg/mL (≈ 1.42 µM); MIC (Aspergillus fumigatus; A. fumigatus NR 35304): 1 µg/mL (≈ 1.42 µM) |
| CNC(C)C1CCC(N)C(OC2C(N)CC(N)C(OC3OCC(C)(O)C(NC)C3O)C2O)O1 (stereo not shown) [Gentamicin, reference compound] | – | – | – | – | – | – | – | ≤ 0.5 µg/mL | ≤ 0.5 µg/mL | – |
